Test results: patent publication US20230129438A1, “IMMUNOMODULATING IMINE-OXAZOLINE AZALIDES” (Zoetis Services LLC, priority 2020, published 2023)
Marks after values point to notes of the source that are not given here.

Columns and labels:
IL-1β = assay: Bovine whole blood assay, IL-1β; type: cell-based; details: drug concentration giving overstimulation of IL-1β over LPS (cellular toxicity signal)
Experimental: (§1) (protected from light) for 30 minutes.

TNF-α = assay: Bovine whole blood assay, LPS-induced TNF-α; type: cell-based; details: LPS 1 μg/mL
Experimental: as §1

P. multocida 46572 = assay: In vivo mouse lung infection challenge model (murine efficacy model); details: for % Survival: 20 mg/kg subcutaneous, CD-1 mice, intranasal challenge, to Day 10, approximate (~%), harmonized relative to vehicle and M9
[1] = tested on: BRD pathogens, M. haemolytica and P. multocida; assay: In-vitro MIC model, BRD pathogen screening panel; type: cell-based; details: asterisk = at least one BRD bacterial isolate

SMILES	IL-Iβ OS of LPS (IL-1β)	IC50 (TNF-α)	% Survival (P. multocida 46572)	MIC flag on Ex# (Table A) [1]	clinical efficacy, in words (P. multocida 46572; P. multocida infection in mice)
CCNC[C@]1(O)[C@H](C)O[C@@H](O[C@H]2[C@H](C)[C@@H](O[C@@H]3O[C@H](C)C[C@H]4[C@H]3OC(=Nc3ccccc3)N4C)[C@](C)(O)C[C@@H](C)CN[C@H](C)[C@@H](O)[C@](C)(O)[C@@H](CC)OC(=O)[C@@H]2C)C[C@@]1(C)OC (mixture of isomers) [Example A-3, (E/Z)-(2R,3S,4R,5R,8R,10R,11R,12S,13S,14R)-11-(((3aR,4S,6R,7aS)-1,6-dimethyl-2-(phenylimino)hexahydro-2H-pyrano[4,3-d]oxazol-4-yl)oxy)-2-ethyl-13-(((2R,4R,5S,6S)-5-((ethylamino)methyl)-5-hydroxy-4-methoxy-4,6-dimethyltetrahydro-2H-pyran-2-yl)oxy)-3,4,10-trihydroxy-3,5,8,10,12,14-hexamethyl-1-oxa-6-azacyclopentadecan-15-one]	5 µM	20 µM	–	–	–
CCCNC[C@]1(O)[C@H](C)O[C@@H](O[C@H]2[C@H](C)[C@@H](O[C@@H]3O[C@H](C)C[C@H]4[C@H]3OC(=Nc3ccccc3)N4C)[C@](C)(O)C[C@@H](C)CN[C@H](C)[C@@H](O)[C@](C)(O)[C@@H](CC)OC(=O)[C@@H]2C)C[C@@]1(C)OC (mixture of isomers) [Example A-6, (E/Z)-(2R,3S,4R,5R,8R,10R,11R,12S,13S,14R)-11-(((3aR,4S,6R,7aS)-1,6-dimethyl-2-(phenylimino)hexahydro-2H-pyrano[4,3-d]oxazol-4-yl)oxy)-2-ethyl-3,4,10-trihydroxy-13-(((2R,4R,5S,6S)-5-hydroxy-4-methoxy-4,6-dimethyl-5-((propylamino)methyl)tetrahydro-2H-pyran-2-yl)oxy)-3,5,8,10,12,14-hexamethyl-1-oxa-6-azacyclopentadecan-15-one]	13 µM	< 5 µM	54%	–	–
CCNC[C@]1(O)[C@H](C)O[C@@H](O[C@H]2[C@H](C)[C@@H](O[C@@H]3O[C@H](C)C[C@H]4[C@H]3OC(=Nc3ccc(OC)cc3)N4C)[C@](C)(O)C[C@@H](C)CN[C@H](C)[C@@H](O)[C@](C)(O)[C@@H](CC)OC(=O)[C@@H]2C)C[C@@]1(C)OC (mixture of isomers) [Example A-12, (E/Z)-(2R,3S,4R,5R,8R,10R,11R,12S,13S,14R)-2-ethyl-13-(((2R,4R,5S,6S)-5-((ethylamino)methyl)-5-hydroxy-4-methoxy-4,6-dimethyltetrahydro-2H-pyran-2-yl)oxy)-3,4,10-trihydroxy-11-(((3aR,4S,6R,7aS)-2-((4-methoxyphenyl)imino)-1,6-dimethylhexahydro-2H-pyrano[4,3-d]oxazol-4-yl)oxy)-3,5,8,10,12,14-hexamethyl-1-oxa-6-azacyclopentadecan-15-one]	32 µM	15 µM	–	–	–
CC[C@H]1OC(=O)[C@H](C)[C@@H](O[C@H]2C[C@@](C)(OC)[C@](O)(CNC(C)C)[C@H](C)O2)[C@H](C)[C@@H](O[C@@H]2O[C@H](C)C[C@H]3[C@H]2OC(=Nc2ccc(OC)nc2)N3C)[C@](C)(O)C[C@@H](C)CN[C@H](C)[C@@H](O)[C@]1(C)O (mixture of isomers) [Example A-26, (E/Z)-(2R,3S,4R,5R,8R,10R,11R,12S,13S,14R)-2-ethyl-3,4,10-trihydroxy-13-(((2R,4R,5S,6S)-5-hydroxy-5-((isopropylamino)methyl)-4-methoxy-4,6-dimethyltetrahydro-2H-pyran-2-yl)oxy)-11-(((3aR,4S,6R,7aS)-2-((6-methoxypyridin-3-yl)imino)-1,6-dimethylhexahydro-2H-pyrano[4,3-d]oxazol-4-yl)oxy)-3,5,8,10,12,14-hexamethyl-1-oxa-6-azacyclopentadecan-15-one]	–	–	–	A-26* (an MIC ≤ 64 μg/mL for at least one BRD bacterial isolate)	–
CC[C@H]1OC(=O)[C@H](C)[C@@H](O[C@H]2C[C@@](C)(OC)[C@](O)(CNCCCOC)[C@H](C)O2)[C@H](C)[C@@H](O[C@@H]2O[C@H](C)C[C@H]3[C@H]2OC(=Nc2ccc(OC)nc2)N3C)[C@](C)(O)C[C@@H](C)CN[C@H](C)[C@@H](O)[C@]1(C)O (mixture of isomers) [Example A-27, (E/Z)-(2R,3S,4R,5R,8R,10R,11R,12S,13S,14R)-2-ethyl-3,4,10-trihydroxy-13-(((2R,4R,5S,6S)-5-hydroxy-4-methoxy-5-(((3-methoxypropyl)amino)methyl)-4,6-dimethyltetrahydro-2H-pyran-2-yl)oxy)-11-(((3aR,4S,6R,7aS)-2-((6-methoxypyridin-3-yl)imino)-1,6-dimethylhexahydro-2H-pyrano[4,3-d]oxazol-4-yl)oxy)-3,5,8,10,12,14-hexamethyl-1-oxa-6-azacyclopentadecan-15-one]	–	–	–	A-27* (an MIC ≤ 64 μg/mL for at least one BRD bacterial isolate)	–
CCCNC[C@]1(O)[C@H](C)O[C@@H](O[C@H]2[C@H](C)[C@@H](O[C@@H]3O[C@H](C)C[C@H]4[C@H]3OC(=Nc3ccc(OC)cc3)N4C)[C@](C)(O)C[C@@H](C)CN(C)[C@H](C)[C@@H](O)[C@](C)(O)[C@@H](CC)OC(=O)[C@@H]2C)C[C@@]1(C)OC (mixture of isomers) [Example A-30, (E/Z)-(2R,3S,4R,5R,8R,10R,11R,12S,13S,14R)-2-ethyl-3,4,10-trihydroxy-13-(((2R,4R,5S,6S)-5-hydroxy-4-methoxy-4,6-dimethyl-5-((propylamino)methyl)tetrahydro-2H-pyran-2-yl)oxy)-11-(((3aR,4S,6R,7aS)-2-((4-methoxyphenyl)imino)-1,6-dimethylhexahydro-2H-pyrano[4,3-d]oxazol-4-yl)oxy)-3,5,6,8,10,12,14-heptamethyl-1-oxa-6-azacyclopentadecan-15-one]	16 µM	10 µM	–	–	–
CCCNC[C@]1(O)[C@H](C)O[C@@H](O[C@H]2[C@H](C)[C@@H](O[C@@H]3O[C@H](C)C[C@H]4[C@H]3OC(=Nc3ccccc3)N4C)[C@](C)(O)C[C@@H](C)CN(CCC)[C@H](C)[C@@H](O)[C@](C)(O)[C@@H](CC)OC(=O)[C@@H]2C)C[C@@]1(C)OC (mixture of isomers) [Example A-34, (E/Z)-(2R,3S,4R,5R,8R,10R,11R,12S,13S,14R)-11-(((3aR,4S,6R,7aS)-1,6-dimethyl-2-(phenylimino)hexahydro-2H-pyrano[4,3-d]oxazol-4-yl)oxy)-2-ethyl-3,4,10-trihydroxy-13-(((2R,4R,5S,6S)-5-hydroxy-4-methoxy-4,6-dimethyl-5-((propylamino)methyl)tetrahydro-2H-pyran-2-yl)oxy)-3,5,8,10,12,14-hexamethyl-6-propyl-1-oxa-6-azacyclopentadecan-15-one]	6 µM	7 µM	–	–	–
CC[C@H]1OC(=O)[C@H](C)[C@@H](O[C@H]2C[C@@](C)(OC)[C@](O)(CN3CCN(C)CC3)[C@H](C)O2)[C@H](C)[C@@H](O[C@@H]2O[C@H](C)C[C@H]3[C@H]2OC(=Nc2ccccc2)N3C)[C@](C)(O)C[C@@H](C)CN[C@H](C)[C@@H](O)[C@]1(C)O (mixture of isomers) [Example B-1, (E/Z)-(2R,3S,4R,5R,8R,10R,11R,12S,13S,14R)-11-(((3aR,4S,6R,7aS)-1,6-dimethyl-2-(phenylimino)hexahydro-2H-pyrano[4,3-d]oxazol-4-yl)oxy)-2-ethyl-3,4,10-trihydroxy-13-(((2R,4R,5S,6S)-5-hydroxy-4-methoxy-4,6-dimethyl-5-((4-methylpiperazin-1-yl)methyl)tetrahydro-2H-pyran-2-yl)oxy)-3,5,8,10,12,14-hexamethyl-1-oxa-6-azacyclopentadecan-15-one]	13 µM	8 µM	43%	–	–
CC[C@H]1OC(=O)[C@H](C)[C@@H](O[C@H]2C[C@@](C)(OC)[C@](O)(CN3CCN(CC)CC3)[C@H](C)O2)[C@H](C)[C@@H](O[C@@H]2O[C@H](C)C[C@H]3[C@H]2OC(=Nc2ccccc2)N3C)[C@](C)(O)C[C@@H](C)CN[C@H](C)[C@@H](O)[C@]1(C)O (mixture of isomers) [Example B-2, (E/Z)-(2R,3S,4R,5R,8R,10R,11R,12S,13S,14R)-11-(((3aR,4S,6R,7aS)-1,6-dimethyl-2-(phenylimino)hexahydro-2H-pyrano[4,3-d]oxazol-4-yl)oxy)-2-ethyl-13-(((2R,4R,5S,6S)-5-((4-ethylpiperazin-1-yl)methyl)-5-hydroxy-4-methoxy-4,6-dimethyltetrahydro-2H-pyran-2-yl)oxy)-3,4,10-trihydroxy-3,5,8,10,12,14-hexamethyl-1-oxa-6-azacyclopentadecan-15-one]	13 µM	6 µM	–	–	–
CC[C@H]1OC(=O)[C@H](C)[C@@H](O[C@H]2C[C@@](C)(OC)[C@](O)(CN3CCOCC3)[C@H](C)O2)[C@H](C)[C@@H](O[C@@H]2O[C@H](C)C[C@H]3[C@H]2OC(=Nc2ccc(OC)cc2)N3C)[C@](C)(O)C[C@@H](C)CN[C@H](C)[C@@H](O)[C@]1(C)O (mixture of isomers) [Example B-4, (E/Z)-(2R,3S,4R,5R,8R,10R,11R,12S,13S,14R)-2-ethyl-3,4,10-trihydroxy-13-(((2R,4R,5S,6S)-5-hydroxy-4-methoxy-4,6-dimethyl-5-(morpholinomethyl)tetrahydro-2H-pyran-2-yl)oxy)-11-(((3aR,4S,6R,7aS)-2-((4-methoxyphenyl)imino)-1,6-dimethylhexahydro-2H-pyrano[4,3-d]oxazol-4-yl)oxy)-3,5,8,10,12,14-hexamethyl-1-oxa-6-azacyclopentadecan-15-one]	13 µM	< 5 µM	37%	–	clinically efficacious
